{"source": "paper PMC7156458", "about": "“Synthetic biology based construction of biological activity-related library of fungal decalin-containing diterpenoid pyrones” (Nature Communications, 2020)", "target": "Aβ42 (Homo sapiens, UniProt P05067)", "sequence (P05067 672-713)": "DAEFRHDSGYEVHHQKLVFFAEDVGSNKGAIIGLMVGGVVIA", "assay": "Th-T (thioflavin-T) assay of Aβ42 aggregation", "type": "biochemical", "conditions": "for Th-T fluorescence, mean of three wells: compound at 50", "data": [{"smiles": "C=C1CC[C@@H]2[C@](C)(CC[C@H]3O[C@H](C=C(C)C)C[C@@]23C)[C@@H]1Cc1c(OC)oc(CO)c(C)c1=O", "note": "[Compound 20]", "values": [{"measurement": "Th-T fluorescence, mean of three wells", "setting": "reading M54 of time course", "value": 2.134}, {"measurement": "Th-T fluorescence, mean of three wells", "setting": "reading M55 of time course", "value": 2.09}, {"measurement": "Th-T fluorescence, mean of three wells", "setting": "reading M56 of time course", "value": 2.129}, {"measurement": "Th-T fluorescence, mean of three wells", "setting": "reading M57 of time course", "value": 2.102}, {"measurement": "Th-T fluorescence, mean of three wells", "setting": "reading M58 of time course", "value": 2.115}, {"measurement": "Th-T fluorescence, mean of three wells", "setting": "reading M59 of time course", "value": 2.0923}, {"measurement": "Th-T fluorescence, mean of three wells", "setting": "reading M60 of time course", "value": 2.089}, {"measurement": "Th-T fluorescence, mean of three wells", "setting": "reading M61 of time course", "value": 2.104}, {"measurement": "Th-T fluorescence, mean of three wells", "setting": "reading M62 of time course", "value": 2.094}, {"measurement": "Th-T fluorescence of Aβ42 with compound, mean of three wells (Fig. 7a source data)", "setting": "concentration 10, unit not given, time-course reading M129", "value": 3.179}, {"measurement": "Th-T fluorescence of Aβ42 with compound, mean of three wells (Fig. 7a source data)", "setting": "concentration 10, unit not given, time-course reading M130", "value": 3.204}, {"measurement": "Th-T fluorescence of Aβ42 with compound, mean of three wells (Fig. 7a source data)", "setting": "concentration 10, unit not given, time-course reading M131", "value": 3.189}, {"measurement": "Th-T fluorescence of Aβ42 with compound, mean of three wells (Fig. 7a source data)", "setting": "concentration 10, unit not given, time-course reading M132", "value": 3.188}, {"measurement": "Th-T fluorescence of Aβ42 with compound, mean of three wells (Fig. 7a source data)", "setting": "concentration 10, unit not given, time-course reading M133", "value": 3.166}, {"measurement": "Th-T fluorescence of Aβ42 with compound, mean of three wells (Fig. 7a source data)", "setting": "concentration 10, unit not given, time-course reading M134", "value": 3.1894}, {"measurement": "Th-T fluorescence of Aβ42 with compound, mean of three wells (Fig. 7a source data)", "setting": "concentration 10, unit not given, time-course reading M135", "value": 3.162}, {"measurement": "Th-T fluorescence of Aβ42 with compound, mean of three wells (Fig. 7a source data)", "setting": "concentration 10, unit not given, time-course reading M136", "value": 3.159}, {"measurement": "Th-T fluorescence of Aβ42 with compound, mean of three wells (Fig. 7a source data)", "setting": "concentration 10, unit not given, time-course reading M137", "value": 3.15}, {"measurement": "Th-T fluorescence of Aβ42 with compound, mean of three wells (Fig. 7a source data)", "setting": "concentration 10, unit not given, time-course reading M138", "value": 3.16}, {"measurement": "Th-T fluorescence of Aβ42 with compound, mean of three wells (Fig. 7a source data)", "setting": "concentration 10, unit not given, time-course reading M139", "value": 3.169}, {"measurement": "Th-T fluorescence of Aβ42 with compound, mean of three wells (Fig. 7a source data)", "setting": "concentration 10, unit not given, time-course reading M140", "value": 3.158}, {"measurement": "Th-T fluorescence of Aβ42 with compound, mean of three wells (Fig. 7a source data)", "setting": "concentration 10, unit not given, time-course reading M141", "value": 3.147}, {"measurement": "Th-T fluorescence of Aβ42 with compound, mean of three wells (Fig. 7a source data)", "setting": "concentration 10, unit not given, time-course reading M142", "value": 3.131}, {"measurement": "Th-T fluorescence of Aβ42 with compound, mean of three wells (Fig. 7a source data)", "setting": "concentration 10, unit not given, time-course reading M143", "value": 3.135}, {"measurement": "Th-T fluorescence of Aβ42 with compound, mean of three wells (Fig. 7a source data)", "setting": "concentration 10, unit not given, time-course reading M144", "value": 3.139}, {"measurement": "Th-T fluorescence of Aβ42 with compound, mean of three wells (Fig. 7a source data)", "setting": "concentration 10, unit not given, time-course reading M145", "value": 3.1201}, {"measurement": "Th-T fluorescence of Aβ42 with compound, mean of three wells (Fig. 7a source data)", "setting": "concentration 20, unit not given, time-course reading M129", "value": 3.1}, {"measurement": "Th-T fluorescence of Aβ42 with compound, mean of three wells (Fig. 7a source data)", "setting": "concentration 20, unit not given, time-course reading M130", "value": 3.095}, {"measurement": "Th-T fluorescence of Aβ42 with compound, mean of three wells (Fig. 7a source data)", "setting": "concentration 20, unit not given, time-course reading M131", "value": 3.098}, {"measurement": "Th-T fluorescence of Aβ42 with compound, mean of three wells (Fig. 7a source data)", "setting": "concentration 20, unit not given, time-course reading M132", "value": 3.079}, {"measurement": "Th-T fluorescence of Aβ42 with compound, mean of three wells (Fig. 7a source data)", "setting": "concentration 20, unit not given, time-course reading M133", "value": 3.072}, {"measurement": "Th-T fluorescence of Aβ42 with compound, mean of three wells (Fig. 7a source data)", "setting": "concentration 20, unit not given, time-course reading M134", "value": 3.073}, {"measurement": "Th-T fluorescence of Aβ42 with compound, mean of three wells (Fig. 7a source data)", "setting": "concentration 20, unit not given, time-course reading M135", "value": 3.076}, {"measurement": "Th-T fluorescence of Aβ42 with compound, mean of three wells (Fig. 7a source data)", "setting": "concentration 20, unit not given, time-course reading M136", "value": 3.0605}, {"measurement": "Th-T fluorescence of Aβ42 with compound, mean of three wells (Fig. 7a source data)", "setting": "concentration 20, unit not given, time-course reading M137", "value": 3.049}, {"measurement": "Th-T fluorescence of Aβ42 with compound, mean of three wells (Fig. 7a source data)", "setting": "concentration 20, unit not given, time-course reading M138", "value": 3.042}, {"measurement": "Th-T fluorescence of Aβ42 with compound, mean of three wells (Fig. 7a source data)", "setting": "concentration 20, unit not given, time-course reading M139", "value": 3.041}, {"measurement": "Th-T fluorescence of Aβ42 with compound, mean of three wells (Fig. 7a source data)", "setting": "concentration 20, unit not given, time-course reading M140", "value": 3.025}, {"measurement": "Th-T fluorescence of Aβ42 with compound, mean of three wells (Fig. 7a source data)", "setting": "concentration 20, unit not given, time-course reading M141", "value": 3.02}, {"measurement": "Th-T fluorescence of Aβ42 with compound, mean of three wells (Fig. 7a source data)", "setting": "concentration 20, unit not given, time-course reading M142", "value": 3.019}, {"measurement": "Th-T fluorescence of Aβ42 with compound, mean of three wells (Fig. 7a source data)", "setting": "concentration 20, unit not given, time-course reading M143", "value": 3.013}, {"measurement": "Th-T fluorescence of Aβ42 with compound, mean of three wells (Fig. 7a source data)", "setting": "concentration 20, unit not given, time-course reading M144", "value": 3.009}, {"measurement": "Th-T fluorescence of Aβ42 with compound, mean of three wells (Fig. 7a source data)", "setting": "concentration 20, unit not given, time-course reading M145", "value": 2.993}, {"measurement": "Th-T fluorescence of Aβ42 with compound, mean of three wells (Fig. 7a source data)", "setting": "concentration 50, unit not given, time-course reading M129", "value": 2.106}, {"measurement": "Th-T fluorescence of Aβ42 with compound, mean of three wells (Fig. 7a source data)", "setting": "concentration 50, unit not given, time-course reading M130", "value": 2.116}, {"measurement": "Th-T fluorescence of Aβ42 with compound, mean of three wells (Fig. 7a source data)", "setting": "concentration 50, unit not given, time-course reading M131", "value": 2.114}, {"measurement": "Th-T fluorescence of Aβ42 with compound, mean of three wells (Fig. 7a source data)", "setting": "concentration 50, unit not given, time-course reading M132", "value": 2.119}, {"measurement": "Th-T fluorescence of Aβ42 with compound, mean of three wells (Fig. 7a source data)", "setting": "concentration 50, unit not given, time-course reading M133", "value": 2.114}, {"measurement": "Th-T fluorescence of Aβ42 with compound, mean of three wells (Fig. 7a source data)", "setting": "concentration 50, unit not given, time-course reading M134", "value": 2.123}, {"measurement": "Th-T fluorescence of Aβ42 with compound, mean of three wells (Fig. 7a source data)", "setting": "concentration 50, unit not given, time-course reading M135", "value": 2.118}, {"measurement": "Th-T fluorescence of Aβ42 with compound, mean of three wells (Fig. 7a source data)", "setting": "concentration 50, unit not given, time-course reading M136", "value": 2.117}, {"measurement": "Th-T fluorescence of Aβ42 with compound, mean of three wells (Fig. 7a source data)", "setting": "concentration 50, unit not given, time-course reading M137", "value": 2.122}, {"measurement": "Th-T fluorescence of Aβ42 with compound, mean of three wells (Fig. 7a source data)", "setting": "concentration 50, unit not given, time-course reading M138", "value": 2.119}, {"measurement": "Th-T fluorescence of Aβ42 with compound, mean of three wells (Fig. 7a source data)", "setting": "concentration 50, unit not given, time-course reading M139", "value": 2.116}, {"measurement": "Th-T fluorescence of Aβ42 with compound, mean of three wells (Fig. 7a source data)", "setting": "concentration 50, unit not given, time-course reading M140", "value": 2.117}, {"measurement": "Th-T fluorescence of Aβ42 with compound, mean of three wells (Fig. 7a source data)", "setting": "concentration 50, unit not given, time-course reading M141", "value": 2.123}, {"measurement": "Th-T fluorescence of Aβ42 with compound, mean of three wells (Fig. 7a source data)", "setting": "concentration 50, unit not given, time-course reading M142", "value": 2.118}]}]}
